{"source": "patent US10770169B2", "about": "“Method of providing a treatment to a subject based on a dynamic pathway map” (THE REGENTS OF THE UNIVERSITY OF CALIFORNIA, priority 2010, dated 2020)", "assay_type_in_all_cases": "cell-based, human", "key": {"[1]": {"tested_on": "panel of 55 breast cancer cell lines", "assay": "Cell growth inhibition assay (Cell Titer Glo, 72 h, 9 doses; GI50, TGI, LC50)", "conditions": "value is the negative log10 of mol/L"}, "[2]": {"tested_on": "luminal, basal, claudin-low and ERBB2AMP breast cancer cell lines", "assay": "Associations of clinically relevant subtypes and response (non-parametric ANOVA or t-test on GI50 ranks)", "conditions": "Table 6; most sensitive subtype, FDR p<0.20", "how_it_was_run": "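GI50 values were compared between cell-line subtype groups by non-parametric ANOVA or t-test on ranks. P-values from three test sets were combined and FDR-corrected. Significant three-group effects were followed by post-hoc comparison of each group against all others, and FDR p<0.20 counted as significant.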"}, "[3]": {"tested_on": "breast cancer cell lines with aberrant vs normal copy number", "assay": "Association of recurrent copy number changes and response (t-test on GI50)", "conditions": "FDR p<0.2", "description": "We used a t-test to assess the association between recurrent copy number changes (at 8q24 (MYC), 11q13 (CCND1), 20q13 (STK15/AURKA)) and drug sensitivity. We combined into a single group cell lines with low or no amplification and compared them to cell lines with high amplification. […] Cell lines for which the GI50 was equal to the maximum concentration tested were omitted from analysis. We omitted compounds where any group had fewer than five samples."}}, "note": "“Also recorded” adds a separate entry of the source.", "data": [{"smiles": "N.N.O=C([O-])C1(C(=O)[O-])CCC1.[Pt+2]", "note": "[Carboplatin]", "values": [{"measurement": "GI50", "setting": "[1]; 600MPE cell line, censored GI50 values", "result": 3.82}, {"measurement": "GI50", "setting": "[1]; AU565 cell line, censored GI50 values", "result": 4.94}, {"measurement": "GI50", "setting": "[1]; BT474 cell line, censored GI50 values", "result": 3.98}, {"measurement": "GI50", "setting": "[1]; BT483 cell line, censored GI50 values", "result": 5.82}, {"measurement": "GI50", "setting": "[1]; BT549 cell line, censored GI50 values", "result": 4.58}, {"measurement": "GI50", "setting": "[1]; CAMA1 cell line, censored GI50 values", "result": 3.72}, {"measurement": "GI50", "setting": "[1]; HCC38 cell line, censored GI50 values", "result": 4.76}, {"measurement": "GI50", "setting": "[1]; HCC70 cell line, censored GI50 values", "result": 4.82}, {"measurement": "GI50", "setting": "[1]; HCC202 cell line, censored GI50 values", "result": 4.44}, {"measurement": "GI50", "setting": "[1]; HCC1143 cell line, censored GI50 values", "result": 3.85}, {"measurement": "GI50", "setting": "[1]; HCC1187 cell line, censored GI50 values", "result": 4.66}, {"measurement": "GI50", "setting": "[1]; HCC1395 cell line, censored GI50 values", "result": 5.00}, {"measurement": "GI50", "setting": "[1]; HCC1419 cell line, censored GI50 values", "result": 4.15}, {"measurement": "GI50", "setting": "[1]; HCC1428 cell line, censored GI50 values", "result": 3.86}, {"measurement": "GI50", "setting": "[1]; HCC1500 cell line, censored GI50 values", "result": 4.69}, {"measurement": "GI50", "setting": "[1]; HCC1806 cell line, censored GI50 values", "result": 4.80}, {"measurement": "GI50", "setting": "[1]; HCC1937 cell line, censored GI50 values", "result": 4.44}, {"measurement": "GI50", "setting": "[1]; HCC1954 cell line, censored GI50 values", "result": 4.37}, {"measurement": "GI50", "setting": "[1]; HCC2185 cell line, censored GI50 values", "result": 4.69}, {"measurement": "GI50", "setting": "[1]; HCC3153 cell line, censored GI50 values", "result": 4.45}, {"measurement": "GI50", "setting": "[1]; LY2 cell line, censored GI50 values", "result": 4.39}, {"measurement": "GI50", "setting": "[1]; MCF7 cell line, censored GI50 values", "result": 3.77}, {"measurement": "GI50", "setting": "[1]; MDAMB134VI cell line, censored GI50 values", "result": 3.73}, {"measurement": "GI50", "setting": "[1]; MDAMB157 cell line, censored GI50 values", "result": 4.07}, {"measurement": "GI50", "setting": "[1]; MDAMB175VII cell line, censored GI50 values", "result": 4.44}, {"measurement": "GI50", "setting": "[1]; MDAMB231 cell line, censored GI50 values", "result": 4.09}, {"measurement": "GI50", "setting": "[1]; MDAMB361 cell line, censored GI50 values", "result": 4.34}, {"measurement": "GI50", "setting": "[1]; MDAMB415 cell line, censored GI50 values", "result": 3.73}, {"measurement": "GI50", "setting": "[1]; MDAMB436 cell line, censored GI50 values", "result": 4.18}, {"measurement": "GI50", "setting": "[1]; MDAMB453 cell line, censored GI50 values", "result": 4.23}, {"measurement": "GI50", "setting": "[1]; MDAMB468 cell line, censored GI50 values", "result": 4.31}, {"measurement": "GI50", "setting": "[1]; SKBR3 cell line, censored GI50 values", "result": 4.87}, {"measurement": "GI50", "setting": "[1]; SUM52PE cell line, censored GI50 values", "result": 4.71}, {"measurement": "GI50", "setting": "[1]; SUM149PT cell line, censored GI50 values", "result": 4.87}, {"measurement": "GI50", "setting": "[1]; SUM159PT cell line, censored GI50 values", "result": 4.55}, {"measurement": "GI50", "setting": "[1]; SUM185PE cell line, censored GI50 values", "result": 3.90}, {"measurement": "GI50", "setting": "[1]; SUM1315MO2 cell line, censored GI50 values", "result": 4.56}, {"measurement": "GI50", "setting": "[1]; T47D cell line, censored GI50 values", "result": 3.95}, {"measurement": "GI50", "setting": "[1]; UACC812 cell line, censored GI50 values", "result": 4.81}, {"measurement": "GI50", "setting": "[1]; ZR75B cell line, censored GI50 values", "result": 3.52}, {"measurement": "GI50", "setting": "[1]; ZR751 cell line, censored GI50 values", "result": 4.07}, {"measurement": "GI50", "setting": "[1]; ZR7530 cell line, censored GI50 values", "result": 4.55}, {"measurement": "GI50", "setting": "[1]; cell line 600MPE", "result": 3.82}, {"measurement": "GI50", "setting": "[1]; cell line AU565", "result": 4.94}, {"measurement": "GI50", "setting": "[1]; cell line BT474", "result": 3.98}, {"measurement": "GI50", "setting": "[1]; cell line BT483", "result": 5.82}, {"measurement": "GI50", "setting": "[1]; cell line BT549", "result": 4.58}, {"measurement": "GI50", "setting": "[1]; cell line CAMA1", "result": 3.72}, {"measurement": "GI50", "setting": "[1]; cell line HCC38", "result": 4.76}, {"measurement": "GI50", "setting": "[1]; cell line HCC70", "result": 4.82}, {"measurement": "GI50", "setting": "[1]; cell line HCC202", "result": 4.44}, {"measurement": "GI50", "setting": "[1]; cell line HCC1143", "result": 3.85}, {"measurement": "GI50", "setting": "[1]; cell line HCC1187", "result": 4.66}, {"measurement": "GI50", "setting": "[1]; cell line HCC1395", "result": 5.00}, {"measurement": "GI50", "setting": "[1]; cell line HCC1419", "result": 4.15}, {"measurement": "GI50", "setting": "[1]; cell line HCC1428", "result": 3.86}, {"measurement": "GI50", "setting": "[1]; cell line HCC1500", "result": 4.69}, {"measurement": "GI50", "setting": "[1]; cell line HCC1806", "result": 4.80}, {"measurement": "GI50", "setting": "[1]; cell line HCC1937", "result": 4.44}, {"measurement": "GI50", "setting": "[1]; cell line HCC1954", "result": 4.37}, {"measurement": "GI50", "setting": "[1]; cell line HCC2185", "result": 4.69}, {"measurement": "GI50", "setting": "[1]; cell line HCC3153", "result": 4.45}, {"measurement": "GI50", "setting": "[1]; cell line LY2", "result": 4.39}, {"measurement": "GI50", "setting": "[1]; cell line MCF7", "result": 3.77}, {"measurement": "GI50", "setting": "[1]; cell line MDAMB134V", "result": 3.73}, {"measurement": "GI50", "setting": "[1]; cell line MDAMB157", "result": 4.07}, {"measurement": "GI50", "setting": "[1]; cell line MDAMB175V", "result": 4.44}, {"measurement": "GI50", "setting": "[1]; cell line MDAMB231", "result": 4.09}, {"measurement": "GI50", "setting": "[1]; cell line MDAMB361", "result": 4.34}, {"measurement": "GI50", "setting": "[1]; cell line MDAMB415", "result": 3.73}, {"measurement": "GI50", "setting": "[1]; cell line MDAMB436", "result": 4.18}, {"measurement": "GI50", "setting": "[1]; cell line MDAMB453", "result": 4.23}, {"measurement": "GI50", "setting": "[1]; cell line MDAMB468", "result": 4.31}, {"measurement": "GI50", "setting": "[1]; cell line SKBR3", "result": 4.87}, {"measurement": "GI50", "setting": "[1]; cell line SUM52PE", "result": 4.71}, {"measurement": "GI50", "setting": "[1]; cell line SUM149PT", "result": 4.87}, {"measurement": "GI50", "setting": "[1]; cell line SUM159PT", "result": 4.55}, {"measurement": "GI50", "setting": "[1]; cell line SUM185PE", "result": 3.90}, {"measurement": "GI50", "setting": "[1]; cell line SUM1315MO", "result": 4.56}, {"measurement": "GI50", "setting": "[1]; cell line T47D", "result": 3.95}, {"measurement": "GI50", "setting": "[1]; cell line UACC812", "result": 4.81}, {"measurement": "GI50", "setting": "[1]; cell line UACC893", "result": 3.04}, {"measurement": "GI50", "setting": "[1]; cell line ZR75B", "result": 3.52}, {"measurement": "GI50", "setting": "[1]; cell line ZR751", "result": 4.07}, {"measurement": "GI50", "setting": "[1]; cell line ZR7530", "result": 4.55}, {"measurement": "Subtype specificity", "setting": "[2]", "result": "Basal + Claudin-low"}, {"measurement": "association of response with amplification at 11q13 (CCND1)", "setting": "[3]", "result": "associated with sensitivity; also recorded: associated with response"}]}]}
